From patent US20250221988A1 (Cullgen (Shanghai), Inc., priority 2022, published 2025)
Read-outs that look alike come from different tables or passages of the source.

Columns and labels:
[1] = system: MOLM-13 cells; experiment: Cell viability assay (CellTiter-Glo) in MOLM-13 cells; type: cell-based
Protocol: (§1) Cell Culture: RS4;11, MV4;11, MOLM-13 and other cells were cultured at 37° C. with 5% CO2 in RPMI 1640 or DMEM Medium supplemented with 10% fetal bovine serum. Cells were authenticated using the short tandem repeat (STR) assays. Mycoplasma test results were negative.
Cell viability assays: Cells were seeded at a density of 5000 cells per well in 96-well assay plates and treated with test compounds following a 8-point or 12-point 3-fold serial dilution. Three days later, cell viability was determined using the CellTiter-Glo assay kit according to the manufacturer's instructions. The dose-response curves were determined and IC50 values were calculated using the GraphPad Prism software following a nonlinear regression (least squares fit) method. […]

[2] = system: MV4;11 cells; experiment: Cell viability assay (CellTiter-Glo) in MV4;11 cells; type: cell-based; settings: read-out: MV4
Protocol: as §1
Cell viability assays: Cells were seeded at a density of 5000 cells per well in 96-well assay plates and treated with test compounds following a 8-point or 12-point 3-fold serial dilution. Three days later, cell viability was determined using the CellTiter-Glo assay kit according to the manufacturer's instructions. The dose-response curves were determined and IC50 values were calculated using the GraphPad Prism software following a nonlinear regression (least squares fit) method.
The IC50 values (nM) of each compound were determined in MV4;11 and MOLM-13 cells with or without gilteritinib (10 nM for MV4;11; and 20 nM for MOML-13) as described in the Materials and Methods subsection and calculated using the GraphPad Prism 5.0 software.

[3] = Homo sapiens, MOLM-13, 72 h, read-out: MOLM-13 IC50 (nM)
[4] = read-out: MOLM-13 IC50 (nM) + 10 nM Gil, MOLM-13 cells, with gilteritinib, three days
[5] = Homo sapiens, MV4-11, 72 h, 11 IC50 (nM)
[6] = 11 IC50 (nM) + 10 nM Gil, MV4;11 cells, with 10 nM gilteritinib, three days
[7] = Homo sapiens, 72 h, MOLM-13 cells, compound alone, three days, read-out: MOLM-13 IC50
[8] = MOLM-13 cells, with gilteritinib, three days, read-out: MOLM-13 IC50 (nM) + 10 nM Gil
[9] = Homo sapiens, MV4-11, 72 h, MV4;11 cells, compound alone, three days, 11 IC50
[10] = MV4;11 cells, with 10 nM gilteritinib, three days, 11 IC50 (nM) + 10 nM Gil

Structure (SMILES)	IC50 [1, 7]	IC50 [1, 8]	IC50 [2, 9]	IC50 [2, 10]	IC50 [1, 3]	IC50 [1, 4]	IC50 [2, 5]	IC50 [2, 6]
O=C1CCC(N2C(=O)c3ccc(NC[C@H]4C[C@H](n5cc(Cc6ccccc6)c(C6CC6)n5)C4)cc3C2=O)C(=O)N1 (stereo partly drawn) [GS-735, 5-(((Trans-3-(4-benzyl-3-cyclopropyl-1H-pyrazol-1-yl)cyclobutyl)methyl)amino)-2-(2,6-dioxopiperidin-3-yl)isoindoline-1,3-dione]	–	–	–	–	10 to 100 nM	< 10 nM	10 to 100 nM	< 10 nM
O=C1CCC(N2C(=O)c3ccc(NC[C@H]4C[C@H](n5cc(-n6ccc7ccccc76)c(C6CC6)n5)C4)cc3C2=O)C(=O)N1 (stereo partly drawn) [GS-738, 5-(((Trans-3-(3-cyclopropyl-4-(1H-indol-1-yl)-1H-pyrazol-1-yl)cyclobutyl)methyl)amino)-2-(2,6-dioxopiperidin-3-yl)isoindoline-1,3-dione]	–	–	–	–	100 to 1000 nM	10 to 100 nM	10 to 100 nM	10 to 100 nM
CC(C)n1ncc2ccc(-c3cn([C@H]4C[C@H](CNc5ccc6c(c5)C(=O)N(C5CCC(=O)NC5=O)C6=O)C4)nc3C3CC3)nc21 (stereo partly drawn) [GS-730, 5-(((Trans-3-(3-cyclopropyl-4-(1-isopropyl-1H-pyrazolo[3,4-b]pyridin-6-yl)-1H-pyrazol-1-yl)cyclobutyl)methyl)amino)-2-(2,6-dioxopiperidin-3-yl)isoindoline-1,3-dione]	–	–	–	–	100 to 1000 nM	10 to 100 nM	10 to 100 nM	10 to 100 nM
O=C1CCC(N2C(=O)c3ccc(NC[C@H]4C[C@H](n5cc(Nc6ccccc6)c(C6CC6)n5)C4)cc3C2=O)C(=O)N1 (stereo partly drawn) [GS-739, 5-(((Trans-3-(3-Cyclopropyl-4-(phenylamino)-1H-pyrazol-1-yl)cyclobutyl)methyl)amino)-2-(2,6-dioxopiperidin-3-yl)isoindoline-1,3-dione]	–	–	–	–	10 to 100 nM	< 10 nM	10 to 100 nM	< 10 nM
O=C1CCC(N2C(=O)c3ccc(NC[C@H]4C[C@H](n5cc(NC6CCOCC6)c(C6CC6)n5)C4)cc3C2=O)C(=O)N1 (stereo partly drawn) [GS-708, 5-(((Trans-3-(3-cyclopropyl-4-((tetrahydro-2H-pyran-4-yl)amino)-1H-pyrazol-1-yl)cyclobutyl)methyl)amino)-2-(2,6-dioxopiperidin-3-yl)isoindoline-1,3-dione]	> 1000 nM	100 to 1000 nM	> 1000 nM	–	–	–	–	–
Cc1cccc2cnn([C@H]3C[C@H](CNc4ccc5c(c4)C(=O)N(C4CCC(=O)NC4=O)C5=O)C3)c12 (stereo partly drawn) [GS-693, 2-(2,6-Dioxopiperidin-3-yl)-5-(((trans-3-(7-methyl-1H-indazol-1-yl)cyclobutyl)methyl)amino)isoindoline-1,3-dione]	> 1000 nM	100 to 1000 nM	> 1000 nM	100 to 1000 nM	–	–	–	–
O=C1CCC(N2C(=O)c3ccc(NC[C@H]4C[C@H](n5cc6ccccc6n5)C4)cc3C2=O)C(=O)N1 (stereo partly drawn) [GS-727, 5-(((Trans-3-(2H-indazol-2-yl)cyclobutyl)methyl)amino)-2-(2,6-dioxopiperidin-3-yl)isoindoline-1,3-dione]	–	–	–	–	> 1000 nM	100 to 1000 nM	> 1000 nM	100 to 1000 nM
O=C1CCC(N2C(=O)c3ccc(NC[C@H]4C[C@H](n5nc(C6CC6)c6nccnc65)C4)cc3C2=O)C(=O)N1 (stereo partly drawn) [GS-648, 5-(((Trans-3-(3-cyclopropyl-1H-pyrazolo[3,4-b]pyrazin-1-yl)cyclobutyl)methyl)amino)-2-(2,6-dioxopiperidin-3-yl)isoindoline-1,3-dione]	> 1000 nM	100 to 1000 nM	> 1000 nM	–	–	–	–	–
O=C1CCC(N2C(=O)c3ccc(NC[C@H]4C[C@H](n5cc(C6CCC(O)CC6)c(C6CC6)n5)C4)cc3C2=O)C(=O)N1 (stereo partly drawn) [GS-701, 5-(((Trans-3-(3-cyclopropyl-4-(4-hydroxycyclohexyl)-1H-pyrazol-1-yl)cyclobutyl)methyl)amino)-2-(2,6-dioxopiperidin-3-yl)isoindoline-1,3-dione]	100 to 1000 nM	10 to 100 nM	10 to 100 nM	10 to 100 nM	–	–	–	–
Cc1nc(-c2cn([C@H]3C[C@H](C#Cc4ccc5c(c4)CN(C4CCC(=O)NC4=O)C5=O)C3)nc2C2CC2)ccc1F (stereo partly drawn) [GS-754, 3-(5-((Trans-3-(3-cyclopropyl-4-(5-fluoro-6-methylpyridin-2-yl)-1H-pyrazol-1-yl)cyclobutyl)ethynyl)-1-oxoisoindolin-2-yl)piperidine-2,6-dione]	> 1000 nM	100 to 1000 nM	> 1000 nM	100 to 1000 nM	–	–	–	–

More lines, main results first:

IC50 [1, 7]	IC50 [1, 8]	IC50 [2, 9]	IC50 [2, 10]	Structure (SMILES)	IC50 [1, 3]	IC50 [1, 4]	IC50 [2, 5]	IC50 [2, 6]
10 to 100 nM	< 10 nM	10 to 100 nM	< 10 nM	N[C@H]1C[C@@H](n2ncc3cnc(-c4cn([C@H]5C[C@H](CNc6ccc7c(c6)C(=O)N(C6CCC(=O)NC6=O)C7=O)C5)nc4C4CC4)cc32)C1 (stereo partly drawn) [GS-778, 5-(((Trans-3-(4-(1-(cis-3-aminocyclobutyl)-1H-pyrazolo[4,3-c]pyridin-6-yl)-3-cyclopropyl-1H-pyrazol-1-yl)cyclobutyl)methyl)amino)-2-(2,6-dioxopiperidin-3-yl)isoindoline-1,3-dione]	–	–	–	–
10 to 100 nM	< 10 nM	< 10 nM	< 10 nM	O=C1CCC(N2C(=O)c3ccc(NC[C@H]4C[C@H](n5cc(-c6ccc7cc[nH]c7n6)c(C6CC6)n5)C4)cc3C2=O)C(=O)N1 (stereo partly drawn) [GS-721, 5-(((Trans-3-(3-cyclopropyl-4-(1H-pyrrolo[2,3-b]pyridin-6-yl)-1H-pyrazol-1-yl)cyclobutyl)methyl)amino)-2-(2,6-dioxopiperidin-3-yl)isoindoline-1,3-dione]	–	–	–	–
> 1000 nM	–	> 1000 nM	–	Cc1nc(-c2cn([C@H]3C[C@H](CNc4cc5c(cc4F)C(=O)N(C4CCC(=O)NC4=O)C5=O)C3)nc2C2CC2)ccc1F (some centres unmarked) [GS-716]	–	–	–	–
> 1000 nM	100 to 1000 nM	100 to 1000 nM	10 to 100 nM	CN1CC(c2ccc3ncc(-c4cn([C@H]5C[C@H](CNc6ccc7c(c6)C(=O)N(C6CCC(=O)NC6=O)C7=O)C5)nc4C4CC4)nc3c2)C1 (stereo partly drawn) [GS-655, 5-(((Trans-3-(3-cyclopropyl-4-(7-(1-methylazetidin-3-yl)quinoxalin-2-yl)-1H-pyrazol-1-yl)cyclobutyl)methyl)amino)-2-(2,6-dioxopiperidin-3-yl)isoindoline-1,3-dione]	–	–	–	–
10 to 100 nM	< 10 nM	< 10 nM	< 10 nM	Cn1ncc2ccnc(-c3cn([C@H]4C[C@H](CNc5ccc6c(c5)C(=O)N(C5CCC(=O)NC5=O)C6=O)C4)nc3C3CC3)c21 (stereo partly drawn) [GS-649, 5-(((trans-3-(3-Cyclopropyl-4-(1-methyl-1H-pyrazolo[3,4-c]pyridin-7-yl)-1H-pyrazol-1-yl)cyclobutyl)methyl)amino)-2-(2,6-dioxopiperidin-3-yl)isoindoline-1,3-dione]	–	–	–	–
> 1000 nM	10 to 100 nM	> 1000 nM	100 to 1000 nM	O=C1CCC(N2C(=O)c3ccc(NC[C@H]4C[C@H](n5cc(-c6cccc(N7CC(O)C7)n6)c(C6CC6)n5)C4)cc3C2=O)C(=O)N1 (stereo partly drawn) [GS-647, 5-(((Trans-3-(3-cyclopropyl-4-(6-(3-hydroxyazetidin-1-yl)pyridin-2-yl)-1H-pyrazol-1-yl)cyclobutyl)methyl)amino)-2-(2,6-dioxopiperidin-3-yl)isoindoline-1,3-dione]	–	–	–	–
> 1000 nM	100 to 1000 nM	> 1000 nM	–	Cc1nc(-c2cn(CC3CC3CNc3ccc4c(c3)C(=O)N(C3CCC(=O)NC3=O)C4=O)nc2C2CC2)ccc1F (centres unmarked) [GS-645, 5-(((2-((3-Cyclopropyl-4-(5-fluoro-6-methylpyridin-2-yl)-1H-pyrazol-1-yl)methyl)cyclopropyl)methyl)amino)-2-(2,6-dioxopiperidin-3-yl)isoindoline-1,3-dione]	–	–	–	–
< 10 nM	< 10 nM	< 10 nM	< 10 nM	CC(C)n1cc2c(-c3cn([C@H]4C[C@H](CNc5ccc6c(c5)C(=O)N(C5CCC(=O)NC5=O)C6=O)C4)nc3C3CC3)ncc(F)c2n1 (stereo partly drawn) [GS-743, 5-(((Trans-3-(3-cyclopropyl-4-(7-fluoro-2-isopropyl-2H-pyrazolo[4,3-c]pyridin-4-yl)-1H-pyrazol-1-yl)cyclobutyl)methyl)amino)-2-(2,6-dioxopiperidin-3-yl)isoindoline-1,3-dione]	–	–	–	–
< 10 nM	< 10 nM	< 10 nM	< 10 nM	O=C1CCC(N2C(=O)c3ccc(NC[C@H]4C[C@H](n5cc(-c6ncc(F)c7[nH]ccc67)c(C6CC6)n5)C4)cc3C2=O)C(=O)N1 (stereo partly drawn) [GS-733, 5-(((Trans-3-(3-cyclopropyl-4-(7-fluoro-1H-pyrrolo[3,2-c]pyridin-4-yl)-1H-pyrazol-1-yl)cyclobutyl)methyl)amino)-2-(2,6-dioxopiperidin-3-yl)isoindoline-1,3-dione]	–	–	–	–
